Patent US20260017958A1, “METHOD FOR DETERMINING REGION OF CELL THAT HAS UNDERGONE PROGRAMMED CELL DEATH, DEVICE COMPRISING DETERMINATION UNIT, AND INFORMATION PROCESSING PROGRAM INCLUDING DETERMINATION STEP” (priority 2022, published 2026)

Columns and labels:
HepG2 cell clusters = conditions: FIG. 47 and 48
Experimental: A549 cells, a human lung cancer-derived cell line, were seeded on an EZSPHERE 6-well plate (manufactured by AGC Techno Glass Co., Ltd.) at a density of 1.50×10^5 cells per well, and the cells were cultured in MEM medium containing 10% fetal bovine serum and MEM Non-Essential Amino Acids Solution (100x) (manufactured by Gibco, Inc.) at a final concentration of 1× under the conditions of 5% CO2, 37° C., and 100% humidity for 3 days, to form cell clusters. A DMSO solution of staurosporine (manufactured by FUJIFILM Wako Pure Chemical Corporation) was added thereto so as to obtain a final concentration of 0, 10, 20, 50, 100, 200, 300, 500, 700, 1000, 2000, or 5000 nM, and the cells were further cultured for 1 day. […]
Subsequently, the threshold value of the amount of spatial variation of the refractive index used in the threshold method was set to 2×10^−4. Subsequently, the refractive index distribution data was subjected to Gaussian noise removal processing using a Gaussian filter, fourth-order differentiation processing, and image convolution processing, and the amount of spatial variation of the refractive index for each voxel included in the refractive index distribution data was calculated. […]

Experimental for A549 cell clusters: A549 cells, a human lung cancer-derived cell line, were seeded on an EZSPHERE 6-well plate (manufactured by AGC Techno Glass Co., Ltd.) at a density of 1.50×10^5 cells per well, and the cells were cultured in MEM medium containing 10% fetal bovine serum and MEM Non-Essential Amino Acids Solution (100x) (manufactured by Gibco, Inc.) at a final concentration of 1× under the conditions of 5% CO2, 37° C., and 100% humidity for 3 days, to form cell clusters. A DMSO solution of staurosporine (manufactured by FUJIFILM Wako Pure Chemical Corporation) was added thereto so as to obtain a final concentration of 0, 10, 20, 50, 100, 200, 300, 500, 700, 1000, 2000, or 5000 nM, and the cells were further cultured for 1 day. Under the conditions in which the final concentration of STS was 0 nM, a solution of DMSO (manufactured by Sigma-Aldrich Corporation), which was used as a solvent for STS, at a final concentration of 0.5% was added.
For the obtained cell clusters, the refractive index distribution data was acquired using an observation apparatus 1A and the ODT shown in the refractive index distribution measurement method C. An objective lens at a magnification of 60 times was used.
Subsequently, the threshold value of the amount of spatial variation of the refractive index used in the threshold method was set to 2×10^−4. Subsequently, the refractive index distribution data was subjected to Gaussian noise removal processing using a Gaussian filter, fourth-order differentiation processing, and image convolution processing, and the amount of spatial variation of the refractive index for each voxel included in the refractive index distribution data was calculated. Lastly, the obtained amount of spatial variation of the refractive index was compared with the threshold value 2×10^−4, a region having an amount of spatial variation of the refractive index greater than the threshold value was determined to be a region of cells that had undergone programmed cell death (region of dead cells), and a region having an amount of spatial variation of the refractive index smaller than the threshold value was determined to be a non-divided region (region of live cells).

`CN[C@@H]1C[C@H]2O[C@@](C)([C@@H]1OC)n1c3ccccc3c3c4c(c5c6ccccc6n2c5c31)C(=O)NC4` [staurosporine] was tested, and the “external shape of the cell cluster” value (HepG2 cell clusters) was “conspicuous changes in the external shape did not occur”, the “equivalent diameter of the cell cluster” value (A549 cell clusters; 0-5000 nM, FIG. 41) was “not dependent on the concentration of staurosporine” and the “volume of the cell cluster” value (A549 cell clusters; 0-5000 nM, FIG. 42) was “not dependent on the concentration of staurosporine”. For the same compound, the “proportion of regions determined to be non-divided regions (live cells)” value (A549 cell clusters; 0-5000 nM, FIG. 46) was “decreased in a staurosporine concentration-dependent manner” and the “nuclear fragmentation (morphological feature of apoptosis) in refractive index tomography data” value (A549 cell clusters; 1000 nM, FIG. 43) was “cells with nuclear fragmentation, which is a morphological feature of apoptosis, were observed on the surface and the inside of the cell cluster”.
